Laboratory results published in patent US20090328246A1, “USE OF THE ocp3 MUTATION TO REGULATE DROUGHT RESISTANCE IN PLANTS” (Calantia Biotech, S.L., priority 2006, published 2009).

What was measured:
Assay type in all cases: in vivo, Arabidopsis thaliana
ocp3 plants = test: Effect of exogenous ABA on development of seedlings in MS-Agar plates; settings: 0.8 μM ABA in MS-Agar; ocp3 mutant vs wt (Col-0); 17 days after seeding
Description: To study any possible effect of exogenous ABA application in the development of ocp3 plants, seeds of said mutant were seeded in MS-Agar plates, as well as in MS-Agar plates supplemented with an ABA concentration of 0.8 μM, and always using the wt wild type genotype (Col-0) as control plants in these experiments. […] Based on this it could therefore be deduced that the loss of function which can be attributed to the ocp3 mutation yields a hypersusceptibility to the ABA hormone and therefore the normal function of the OCP3 gene would be compatible with that of regulating any repression aspect of the ABA hormone transduction pathway, either in the sense of its synthesis or in that of its correct perception.
FIG. 2. Effect of ABA in the development of ocp3 plants compared with wt (Col-0) plants. The seeds were sterilized, stratified at 4° C. for 4 days and seeded in plates with MS-Agar medium and MS-Agar supplemented with 0.8 μM ABA. The photographs were taken 17 days after the seeding.
The plants were grown in Jiffy-7 compacted substrate (Clause-Tezier Iberica, Valencia, Spain) at 23° C. with a photoperiod of 10 hours of light and 14 of darkness. For the in vitro culture, the seeds were sterilized by adding 70% ethanol for 2 minutes and commercial 30% lye for 7 minutes. Subsequently, 5-7 washes with sterile water were performed and they were stratified at 4° C. for 4 days. […]

[1] = test system: rd29A, rd29B and rd22 water stress marker genes; test: RT-PCR expression of rd29A, rd29B and rd22 water stress marker genes after exogenous ABA application
Text: A possibility that would explain the greater sensitivity to ABA of the ocp3 mutant as well as the increase in drought resistance could be that the mutation in said gene had caused a constitutive activation of the ABA-dependent signaling pathway and the final result of which would be the constitutive expression of dehydration-responsive genes which increase the protection levels against the damage caused by water stress and therefore this would aid the plants in better resisting this type of stress. For the purpose of studying this possibility, a molecular analysis was conducted, determining the expression levels (measured as accumulation of the corresponding mRNA by RT-PCR) of several signaling marker genes in response to dehydration, both of those genes activated by the ABA-dependent route, and of those genes the activation of which is independent of the ABA route. The rd29B and rd22 genes were used as markers of the ABA-dependent pathway, whereas rd29A was used for the ABA-independent pathway. The levels of the transcripts of these genes at different times (0, 1 h, 3 h and 6 h) were analyzed after incubating the plants in a liquid medium with 150 μM ABA.
FIG. 3. Analysis of the expression by RT-PCR of rd29A, rd29B and rd22 water stress marker genes in Col-0 and ocp3 plants, using the ELF1α gene as a control. The plants were grown in MS-Agar plates for 3 weeks and the RNAs were extracted from samples collected at different times. (A) Expression levels after exogenous 150 μM ABA application in a liquid culture. (B) Expression levels 10 minutes, 30 minutes and 1, 3 and 6 hours after subjecting the plants to dehydration.
FIG. 9. Comparison of the induction by ABA of the expression of rd29A, rd29B and rd22 water stress marker genes assayed by RT-PCR in RNA samples from Col-0, ocp3, aba2-1, abi1-1 and ocp3abi1-1 plants, and using the accumulation of the mRNA corresponding to the ELF1α gene as a control. The procedure was the same as that described for FIG. 3. […]
The semi-quantitative RT-PCR technique was used to determine the relative amounts of some mRNAs of interest. […]

OCP3 gene = test: Real-time PCR relative expression of OCP3 after exogenous ABA application; settings: 150 μM ABA; wt plants; evident at very short times
Description: In both drought and dehydration conditions, plants respond by increasing the endogenous levels of ABA, which involves the activation of a signaling cascade having as a result a series of changes at the transcriptomic level. To study the possible effect that ABA may have in transcriptional OCP3 regulation in wt plants, the relative levels of the mRNA corresponding to the OCP3 gene is measured by quantitative RT-PCR (q-RT-PCR) at different times after applying ABA, as well as after subjecting the plants to dehydration stress. The ABI1 gene was used as a control in the experiments, the expression of which is known to be induced in response to both ABA and dehydration. As can be observed in FIG. 4, both as a result of applying 150 μM ABA and after imposing a water stress to the seedlings, a sharp drop of the accumulation levels of the transcript corresponding to the OCP3 gene is observed. Said repression in the expression of the OCP3 gene as a result of the treatment with ABA or of dehydration, already becomes evident at very short times. […]
FIG. 4. Relative expression levels of OCP3 and ABI1 in response to exogenous 150 μM ABA application (A) and dehydration (B) measured by real-time PCR. […]
The samples were analyzed in triplicate and the real-time PCR reactions were performed using Sybr Green PCR Master Mix (Applied Biosystems) in an ABI PRISM 7000 sequence detector. […]

[2] = test system: stomata of ocp3 and wt plants; test: Measurement of the stomatal closure induced by ABA in epidermal peelings of rosette leaves; settings: 100 μM ABA
Text: There are different stimuli modifying the rate as well as the degree of opening/closure of the stomata and, among them, subjecting the plants to drought or depriving them of light should be emphasized, and both signalings are always directly related to an increase in the endogenous levels of ABA, a hormone determining the closure of stomata under inductive or stress conditions. To determine if there is any defect in ABA-mediated signaling in the ocp3 mutant, the decision was made to compare the stomatal closure rate between ocp3 plants and Col-0 plants, occurring after direct ABA application in epidermal samples (peelings) obtained from rosette leaves. […] Therefore, it is inferred from these experiments that the ocp3 mutant is more sensitive to the ABA hormone and this translates into an early response to this hormone which is manifested with an accelerated stomatal closure. The greater susceptibility to ABA is consistent with the hypersusceptibility shown by the seedlings when they are germinated and grown in the presence of ABA (FIG. 2). Furthermore, said hypersusceptibility to ABA could explain the drought resistance phenotype, since drought causes increases in ABA synthesis which in turn lead to the closure of stomata to prevent the loss of water by evapotranspiration. Thus, since the ocp3 mutant is more sensitive to ABA, it would accelerate the closure of its stomata with a drought signal and this promptness in the response could provide it with an advantage to resist the metabolic drawbacks derived from water privation better or for more time.
FIG. 7. Measurement of the stomatal closure induced by ABA (100 μM) in ocp3 and wt plants. Rosette leaves were detached from 6 week-old plants of the ocp3 and Col-0 genotypes and incubated in a solution (10 mM Mes-KOH pH 6.15 and 30 mM KCl) for 2 hours to induce the opening of the stomata. Then, 100 μM ABA was added to induce the closure of the stomata. The opening of the ostiole was measured at the different times indicated in epidermal peelings of the leaves with the different genetic backgrounds. […]

[3] = ABA application, abi1-1 and ocp3 abi1-1 double mutant, compared with wt or ocp3

CC1=CC(=O)CC(C)(C)[C@@]1(O)/C=C/C(C)=C\C(=O)O [ABA, abscisic acid]
development of the ocp3 mutant in the presence of ABA (ocp3 plants): arrested in the first stages of germination | induction and accumulation levels of rd29A, rd29B, rd22 transcripts, wt (Col-0) vs ocp3 ([1]; 150 μM ABA, liquid medium, 0, 1 h, 3 h, 6 h): no observable differences | induction of the expression of the rd29A gene [1, 3]: greatly reduced | induction of the expression of the rd29B and rd22 genes [1, 3]: virtually annulled | accumulation levels of the OCP3 transcript (OCP3 gene): sharp drop | closure of the stomata in ocp3 plants ([2]; 30 minutes after applying, ocp3 plants): accelerated closure | closure of the stomata in wt control ([2]; 30 minutes after applying, wt (Col-0)): has still not started the process for closing its stomata | state of the stomata of ocp3 and wt plants ([2]; 2 hours after applying, ocp3 and wt plants): completely closed
